Consider 1 compound from publication PMC6063846, “Matrine inhibits itching by lowering the activity of calcium channel” (Scientific Reports, 2018).

The target of this assay is T1, N-type calcium channel (Mus musculus, UniProt O55017).
T1 construct: gene Cacna1b
It is filed as cell-based.

T1 sequence (O55017 whole entry): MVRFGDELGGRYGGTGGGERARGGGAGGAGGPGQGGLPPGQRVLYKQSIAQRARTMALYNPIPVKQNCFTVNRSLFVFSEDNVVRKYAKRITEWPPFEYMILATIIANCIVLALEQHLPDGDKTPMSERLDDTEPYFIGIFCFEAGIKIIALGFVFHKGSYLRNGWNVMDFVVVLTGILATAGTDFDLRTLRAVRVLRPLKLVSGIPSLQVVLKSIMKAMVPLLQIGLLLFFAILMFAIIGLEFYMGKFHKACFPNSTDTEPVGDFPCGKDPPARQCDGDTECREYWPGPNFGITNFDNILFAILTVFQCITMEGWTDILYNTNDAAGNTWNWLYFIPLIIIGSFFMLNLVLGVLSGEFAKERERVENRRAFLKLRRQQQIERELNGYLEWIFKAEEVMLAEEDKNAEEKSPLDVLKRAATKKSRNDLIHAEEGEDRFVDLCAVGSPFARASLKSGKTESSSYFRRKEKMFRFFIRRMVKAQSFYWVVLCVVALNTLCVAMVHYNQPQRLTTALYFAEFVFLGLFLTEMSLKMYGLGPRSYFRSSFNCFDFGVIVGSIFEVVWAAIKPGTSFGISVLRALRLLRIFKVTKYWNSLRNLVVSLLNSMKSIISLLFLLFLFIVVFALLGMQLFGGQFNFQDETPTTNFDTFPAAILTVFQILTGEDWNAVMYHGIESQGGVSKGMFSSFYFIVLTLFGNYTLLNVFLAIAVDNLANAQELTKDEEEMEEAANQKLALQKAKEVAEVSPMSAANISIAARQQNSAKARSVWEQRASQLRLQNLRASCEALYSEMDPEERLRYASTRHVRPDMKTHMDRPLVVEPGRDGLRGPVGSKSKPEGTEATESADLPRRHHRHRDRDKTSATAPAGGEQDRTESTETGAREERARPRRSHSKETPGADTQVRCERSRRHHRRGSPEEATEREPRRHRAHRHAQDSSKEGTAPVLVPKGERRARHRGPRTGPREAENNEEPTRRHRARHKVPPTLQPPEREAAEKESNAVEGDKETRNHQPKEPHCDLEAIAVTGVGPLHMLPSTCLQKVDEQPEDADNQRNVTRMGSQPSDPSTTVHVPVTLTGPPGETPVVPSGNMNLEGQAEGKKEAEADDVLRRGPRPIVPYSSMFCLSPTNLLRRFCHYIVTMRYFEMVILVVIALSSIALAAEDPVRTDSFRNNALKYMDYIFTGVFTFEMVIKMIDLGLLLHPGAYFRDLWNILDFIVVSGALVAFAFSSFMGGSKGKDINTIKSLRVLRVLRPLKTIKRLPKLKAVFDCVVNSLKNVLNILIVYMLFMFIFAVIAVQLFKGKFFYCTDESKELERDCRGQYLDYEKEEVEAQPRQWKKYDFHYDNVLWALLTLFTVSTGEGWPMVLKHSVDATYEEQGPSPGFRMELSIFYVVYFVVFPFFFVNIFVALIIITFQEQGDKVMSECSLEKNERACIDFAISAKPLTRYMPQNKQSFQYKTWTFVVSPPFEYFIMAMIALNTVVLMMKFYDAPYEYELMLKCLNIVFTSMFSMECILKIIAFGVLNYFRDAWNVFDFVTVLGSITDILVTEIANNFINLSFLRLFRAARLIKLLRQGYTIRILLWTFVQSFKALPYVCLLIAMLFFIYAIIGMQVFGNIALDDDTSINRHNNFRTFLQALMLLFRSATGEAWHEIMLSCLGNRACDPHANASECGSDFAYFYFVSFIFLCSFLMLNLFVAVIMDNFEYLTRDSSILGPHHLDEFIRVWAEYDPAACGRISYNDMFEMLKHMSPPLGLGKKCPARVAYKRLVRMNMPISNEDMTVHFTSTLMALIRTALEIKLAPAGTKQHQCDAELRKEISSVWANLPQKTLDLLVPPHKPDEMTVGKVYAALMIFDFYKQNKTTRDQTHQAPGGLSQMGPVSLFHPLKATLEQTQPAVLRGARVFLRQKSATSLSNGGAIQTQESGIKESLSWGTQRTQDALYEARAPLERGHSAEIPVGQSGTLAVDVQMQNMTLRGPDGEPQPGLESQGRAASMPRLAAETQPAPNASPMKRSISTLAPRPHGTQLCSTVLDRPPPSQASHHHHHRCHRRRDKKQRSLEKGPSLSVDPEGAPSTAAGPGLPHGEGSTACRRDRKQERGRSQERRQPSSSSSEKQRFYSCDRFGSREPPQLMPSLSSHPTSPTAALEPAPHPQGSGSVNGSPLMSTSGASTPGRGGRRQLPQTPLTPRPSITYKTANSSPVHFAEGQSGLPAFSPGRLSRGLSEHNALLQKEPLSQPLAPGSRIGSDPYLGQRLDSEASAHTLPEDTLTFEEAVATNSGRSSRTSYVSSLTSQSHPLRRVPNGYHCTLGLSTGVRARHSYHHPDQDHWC

`O=C1CCC[C@@H]2[C@H]3CCCN4CCC[C@@H](CN12)[C@@H]34` [MT, Matrine]: the “whole-cell patch clamp of HVA Ca2+ currents in native mouse DRG neurons, occlusi” value was “the inhibitory effect of MT on HVA Ica current is mainly by inhibiting the N-type calcium channel”.
